We go through 18 molecules from patent publication US5977144A (priority 1997, dated 1999).

Entries after “also recorded” stand apart in the source; their conditions may differ. Structures can show the parent of a compound that is named as a salt. Where two headings read alike, the source gives them in different places.

Assay [1] deals with alpha7 receptor (high affinity alpha-bungarotoxin binding, rat brain membranes) (Rattus norvegicus, UniProt Q05941). The assay can be described thus: biochemical.
Chain of alpha7 receptor (high affinity alpha-bungarotoxin binding, rat brain membranes) (Q05941 23-502): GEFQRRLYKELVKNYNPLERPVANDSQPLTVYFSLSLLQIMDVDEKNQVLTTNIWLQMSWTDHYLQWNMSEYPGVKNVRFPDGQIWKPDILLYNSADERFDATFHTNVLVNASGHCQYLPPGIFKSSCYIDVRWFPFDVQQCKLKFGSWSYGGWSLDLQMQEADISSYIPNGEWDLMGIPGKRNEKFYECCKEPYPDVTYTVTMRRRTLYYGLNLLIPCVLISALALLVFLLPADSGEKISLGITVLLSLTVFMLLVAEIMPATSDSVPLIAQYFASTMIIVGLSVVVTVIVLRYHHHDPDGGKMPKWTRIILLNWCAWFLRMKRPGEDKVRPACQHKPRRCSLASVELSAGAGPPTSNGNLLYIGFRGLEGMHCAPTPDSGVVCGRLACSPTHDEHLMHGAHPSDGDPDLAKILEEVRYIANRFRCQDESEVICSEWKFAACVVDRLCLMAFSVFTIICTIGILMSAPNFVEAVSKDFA
Assay [2] addresses T1, rat alpha7 receptor (Rattus norvegicus, UniProt Q05941). The assay can be described thus: cell-based. How it is done: FIG. 13A. Effects of chronic injections of DMXB or nicotine on high affinity [^3 H]ACh or [^125 I]α-bungarotoxin (BTX) binding in rat neocortices. Adult male rats were injected with saline vehicle, 1 mg/kg DMXB or 0.2 mg/kg nicotine (NIC) (IP) daily for 2 weeks. At that time, neocortices were removed and assayed for high affinity [^3 H]ACh or [^125 I]α-bungarotoxin binding as described in the text. […] Responses of rat α7 ACHR to 3-CA, 2-MeOCA and 4-MeOCA. Concentration-response relationships for the peak agonist activated currents of oocytes injected with RNA coding for the rat α7 subunit. All responses were initially measured relative to the individual oocyte-response to 500 μM ACh, applied 5 min prior to drug-application. Responses were normalized relative to the maximum response obtainable with ACh so that a response of 1 represents full efficacy. The ratio of 500 μM ACh control response to ACh maximum was taken from Papke et al., 1997.
(§1) Oocytes were prepared and recordings made as described previously (de Fiebre, et al., 1995). Frogs were anesthetized by submersion in 0.1% (3)-aminobenzoic acid ethyl ester and several lobes of the ovary surgically removed through a small incision in the abdomen wall. Oocytes were freed from the follicle cells by treatment with collagenase (in calcium-free Barth's solution: 88 mM NaCl, 1 mM KCl, 15 mM Hepes pH 7.6, 0.33 mM MgSO4, 0.1 mg/ml gentamicin sulfate) for 2 hr at room temperature and Stage 5 oocytes were isolated. Oocytes were rinsed and stored at 18° C. in Barth's saline (88 mM NaCl, 1 mM KCl, 15 mM Hepes pH 7.6, 0.3 mM Ca(NO3)2, 0.41 mM CaCl2, 0.82 mM MgSO4, 0.1 mg/ml gentamicin sulfate) before and after microinjection with RNA. Microinjection was conducted with a Drummond Scientific "Nanoject Variable" automatic injector. Oocytes were injected with a 50 nl solution of specified rat nicotinic subunit mRNA species (2-10 mg/ml; derived from the cDNA containing HIP 306 plasmid kindly provided by Dr. Jim Boulter, Salk Institute) and incubated 2-7 days at 18° C. before electrophysiological recording. electrophysiological recordings, oocytes were perfused in a Warner Instruments RC-8 recording chamber with a perfusion solution containing 115 mM NaCl, 2.5 mM KCl, 10 mM Hepes pH 7.2, 1.8 mM CaCl2 and 1 μM atropine to block muscarinic responses. Perfusion was continuous at a rate of 10 ml/min. Drags were diluted in perfusion solution and applied using a solenoid valve to switch from perfusion to drug solutions. Current responses to drug administration were studied under two electrode voltage clamp at a holding potential of -70 mV using a Dagan Corp. TEV-200 voltage clamp connected to a 386-SX IBM computer using a TL-1 DMA interface (Axon Instruments). Micropipettes were filled with 3 M KCl and had resistances of 0.5-2 MOhms. Drug responses are analyzed with PClamp software (Axon Instruments). Oocytes with resting potentials of less than -30 mV were rejected.

The next assay addresses rat alpha4beta2 receptor (Rattus norvegicus, UniProt P09483+P12390). The assay can be described thus: Activation of alpha4beta2 receptors expressed in Xenopus oocytes. In kind it is cell-based. To be noted: for Emax: read-out: alpha4beta2 activation: response compared to maximal acetylcholine. How it is done:
FIG. 14A. Responses of α4β2 ACHR to 3-CA, 2-MeOCA or 4-MeOCA. Concentration-response relationships for the peak agonist activated currents of oocytes injected with RNA coding for rat α4β2 subunits. Responses are first expressed relative to the response to 10 μM ACh, applied 5 min before drug-application, then normalized to the maximum response obtainable with ACh so that a response of 1 represents full efficacy. The ratio between 10 μM ACh and maximum ACh response was determined in separate experiments.
as §1

The target in assay [3] is T1, rat alpha7 receptor. In words: cell-based. More on the design: Oocytes Antagonist: unit not given here. How it is done: FIG. 13B. Effects of chronic injections of DMXB or nicotine on high affinity [^3 H]ACh or [^125 I]α-bungarotoxin (BTX) binding in rat neocortices. Adult male rats were injected with saline vehicle, 1 mg/kg DMXB or 0.2 mg/kg nicotine (NIC) (IP) daily for 2 weeks. At that time, neocortices were removed and assayed for high affinity [^3 H]ACh or [^125 I]α-bungarotoxin binding as described in the text. […] Responses of rat α7 AChR to 3-CA, 2-MeOCA and 4-MeOCA. […] All responses are expressed relative to the oocyte-response to 500 μM ACh applied 5 min prior to the experimental agonist application.
as §1
Antagonist properties subsequent to agonist activity were measured as a decrease in responsiveness to ACh applied 5 min after compound-application, normalized to ACh application instead of the anabaseine-derivative (FIG. 13A AND FIG. 13B).

Assay [4] has as its system rat primary neocortical neurons. Format: cell-based.
For another assay, the system named is rat. In words: Focal ischemia infarct size in rats. Format: in vivo. The conditions noted are these: 0.5 mg/kg IP mecamylamine with DMXB. How it is done:
FIG. 3. […] Rats received a 30 minute ischemia attack through tying of their common carotid; the amount of cell death (proportional to Infarct Size) was determined 24 hours later. Some animals received the benzylidene-anabaseine compound DMXB (1 mg/kg IP, salt weight) 1 hour before ligation, or the nicotinic antagonist mecamylamine (0.5 mg/kg IP), or both mecamylamine and DMXB, or DMXB 5 minutes after the ligation.
Male Sprague Dawley albino male rats (250-300 g) were anesthetized with a subcutaneous injection of ketamine, xylazine, and acepromazine (3:3:1 mixture, 0.7 cc/kg). Atropine (0.4 mg/kg IP) was injected several min prior to dissection of the carotid artery from the vagus. The internal carotid artery (ICA) was dissected until its proximal bifurcation into the terminal ICA and pterygopalatine arteries were clearly defined. The pterygopalatine artery was clipped parallel to and flush with the terminal ICA. Another clip was applied to the common carotid artery (CCA). The distal aspect of the external carotid artery (ECA) was coagulated and a straight aneurysm clip was applied 4 mm distal to the proximal ICA bifurcation. A suture was passed through the arteriotomized ECA stump into the ICA until the tip was resting against the aneurysm clip. The suture was removed 30 min later, with body temperature maintained between 36.5-37.5° C. The ECA stump was coagulated with bipolar electrocautery. Clips were removed and the wound was irrigated with saline prior to suturing.
Rats were euthanised 24 hours post-infarction and their brains removed and sectioned coronally (2 mm). Sections were placed into a 2% solution of 2,3,5-triphyenyl-tetrazolium cholide (Sigma Chemical Co., St. Louis. Mo.) for 20 minutes at 37° C. The sections were removed to a petri dish and covered with 10% formaldehyde solution. The outline function of the NIH Image computer program (version 1.47) was used to estimate the infarcted and total brain areas for each section. Infarct size was calculated as percent of total brain area.

Another assay relates to PC12 cells. In kind it is cell-based. The conditions noted are these: 10 μM (NGF 100 ng/ml); 4 days after removal of serum and NGF; mean±SEM; * p<0.05. How it is done: PC12 cell-culture methods were modified from Greene and Tischler (1976). Cells were plated at 30-40% confluence and grown in Dulbecco's Modified Eagle Medium containing 10% heat-inactivated horse serum, 5% fetal bovine serum, 100 units/ml penicillin, 100 μg/ml streptomycin and 0.5 mM 1-glutamine. Cultures were maintained at 37° C., […] /6% CO2 and 90-92% humidity in culture plates pre-coated with poly-1lysine (10 g/L). Cultures were maintained for 7 days in serum-supplemented medium to which 100 ng/ml rat 2.5S NGF was added at day 1. On day 7, conditioned medium was replaced serum-free medium containing specified drugs. Four days later, cell density was estimated using the NIH Image program version 1.47 and number of neurite-expressing cells counted manually in blind fashion as described previously (Martin et al., 1994). A Nikon inverted microscope (100× magnification) was attached to a Mac II computer via a monochrome video camera (Cohu, Inc., San Diego, Calif.). Four random areas were counted per plate and there were 4 plates per treatment group, unless otherwise indicated. Neurites were defined as processes at least 2× the length of the perikaryon. To assess the reliability of the image analyses, a reticle was used for direct quantification of cells in the same view as the one analyzed in random samples.
PC12 cells were differentiated for 1 week with NGF. Drugs were administered for the 4 day interval after removal of serum and NGF. Neuites were counted and expressed as the mean±SEM of at least 3 plates/group.

Setting [5] is: Table 4, read-out: Receptor Binding α7.
Setting [6] is: read-out: alpha7 activation: response, normalized to 500 μM acetylcholine (maximum response).
Setting [7] is: read-out: alpha7 binding: % Inhibition of high affinity alphabungarotoxin binding (1 nM).

Chain of rat alpha4beta2 receptor (P09483 31-630): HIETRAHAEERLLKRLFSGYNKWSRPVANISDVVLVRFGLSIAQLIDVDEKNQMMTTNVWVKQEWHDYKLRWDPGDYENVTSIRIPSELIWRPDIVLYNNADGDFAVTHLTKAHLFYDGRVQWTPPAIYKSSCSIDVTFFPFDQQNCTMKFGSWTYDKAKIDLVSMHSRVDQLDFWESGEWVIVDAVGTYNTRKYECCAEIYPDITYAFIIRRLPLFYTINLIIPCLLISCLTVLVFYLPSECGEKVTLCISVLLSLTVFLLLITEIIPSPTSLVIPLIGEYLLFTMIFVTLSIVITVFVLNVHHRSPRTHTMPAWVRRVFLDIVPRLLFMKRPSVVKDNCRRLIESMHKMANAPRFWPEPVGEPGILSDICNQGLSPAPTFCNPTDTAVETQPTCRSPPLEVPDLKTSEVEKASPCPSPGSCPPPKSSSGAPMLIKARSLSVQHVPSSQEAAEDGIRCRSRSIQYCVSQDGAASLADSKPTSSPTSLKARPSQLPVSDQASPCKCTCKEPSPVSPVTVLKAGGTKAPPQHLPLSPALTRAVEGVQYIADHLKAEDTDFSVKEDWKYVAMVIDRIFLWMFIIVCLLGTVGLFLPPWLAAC
Chain of rat alpha4beta2 receptor (P12390 25-500): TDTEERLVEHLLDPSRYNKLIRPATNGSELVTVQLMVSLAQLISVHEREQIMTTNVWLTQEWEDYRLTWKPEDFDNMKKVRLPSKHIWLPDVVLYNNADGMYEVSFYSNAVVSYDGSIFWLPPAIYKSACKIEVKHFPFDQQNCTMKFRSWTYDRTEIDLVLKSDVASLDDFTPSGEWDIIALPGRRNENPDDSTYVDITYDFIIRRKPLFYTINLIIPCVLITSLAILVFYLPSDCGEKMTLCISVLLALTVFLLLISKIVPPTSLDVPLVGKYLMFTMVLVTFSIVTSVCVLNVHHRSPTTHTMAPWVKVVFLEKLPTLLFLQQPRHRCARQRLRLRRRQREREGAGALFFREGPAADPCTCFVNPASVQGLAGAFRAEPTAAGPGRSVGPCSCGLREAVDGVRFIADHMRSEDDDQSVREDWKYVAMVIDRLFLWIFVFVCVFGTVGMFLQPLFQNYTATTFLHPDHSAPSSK
T1 sequence (Q05941 23-502): as the sequence (Q05941 23-502) above

As to `COc1ccc(C=C2CCCNC2c2cccnc2)c(OC)c1` (centres unmarked) [3(4-dimethoxy-benzylidene)anabasine], the inhibition at 1 µM in assay [1] (setting [5]) is 9%.
On to `COc1ccc(C=C2CCCN=C2c2cccnc2)cc1` [GTS-2, 3-(4-methoxybenzylidene)anabaseine], for which the Emax at rat alpha7 receptor [2] (setting [6]) is 7%; at rat alpha4beta2 receptor it was 5%.
For `Oc1ccc(C=C2CCCN=C2c2cccnc2)cc1` [GTS-7, 3-(4-hydroxybenzylidene)anabaseine], the results for the Emax at rat alpha7 receptor [2] (setting [6]) and at rat alpha4beta2 receptor were 31% and 2%, respectively. The inhibition at 1 µM came to 69.3% in assay [1] (setting [5]) and 69% in assay [1] (concentration of 1 μM (Table 1), read-out: alpha7 binding: % Inhibition of high affinity alphabungarotoxin binding (1 nM)).
As to `Nc1ccc(C=C2CCCN=C2c2cccnc2)cc1` [GTS-13, 3-(4-aminobenzylidene)anabaseine], the “Oocytes Antagonist” value on rat alpha7 receptor [3] was “.69”. The Emax at rat alpha7 receptor [2] (read-out: Oocytes Agonist α7) was found to be 72%; at rat alpha7 receptor [2] (setting [6]), 72%; at rat alpha4beta2 receptor, 5%. In addition, the inhibition at 1 µM in assay [1] (read-out: Receptor Binding α7) and in assay [1] (setting [7]) was 93% throughout.
With `COc1ccc(C=C2CCCN=C2c2cccnc2)c(O)c1` [GTS-51, 3-(2-hydroxy-4-methoxybenzylidene) anabaseine], the “Oocytes Antagonist” value at rat alpha7 receptor [3] is on record as “.26”. Also, the figures for the Emax at rat alpha7 receptor [2] (read-out: Oocytes Agonist α7), on rat alpha7 receptor [2] (setting [6]) and at rat alpha4beta2 receptor were 29%, 29% and 1%, respectively. In addition, the inhibition at 1 µM in assay [1] (setting [7]) was determined as 45%.
Consider `COc1cc(O)ccc1C=C1CCCN=C1c1cccnc1` [GTS-62, 3-(4-hydroxy-2-methoxybenzylidene)anabaseine], for which the “Oocytes Antagonist” value at rat alpha7 receptor [3] was “.35”. Besides, the Emax at rat alpha7 receptor [2] (read-out: Oocytes Agonist α7) was determined as 43%; at rat alpha7 receptor [2] (setting [6]), 41%; at rat alpha4beta2 receptor, 4%. Further, the inhibition at 1 µM in assay [1] (read-out: Receptor Binding α7) and in assay [1] (setting [7]) was 84% each time.
Regarding `COc1ccc(C(C)=C2CCCN=C2c2cccnc2)c(OC)c1` [GTS-80, 3-(2,4-dimethoxy-α-methyl-benzylidene)], the inhibition at 1 µM in assay [1] (setting [5]) turned out to be 85%.
On the same count and under the same terms, the figure for `COc1cc(O)ccc1/C=C/C=C1\CCCN=C1c1cccnc1` [GTS-86, trans-3-(4-hydroxy-2-methoxycinnamylidene) anabaseine dihydrochloride] is 90%.
Same read-out and setting: next, `COc1ccc(/C=C/C=C2\CCCN=C2c2cccnc2)c(OC)c1` [GTS-87, trans-3-(2,4-dimethoxycinnamylidene) anabaseine dihydrochloride]: 76%.
`C[C@]12N[C@H](Cc3ccccc31)c1ccccc12` [MK-801]: in assay [4] (10 μM, with 1 mM glutamate), the “protection against glutamate, concomitant (in words)” value is reported as “blocking effect”.
For the molecule `CN(C)CCCOc1ccc(C=C2CCCN=C2c2cccnc2)cc1` [compound 15, 3(4-dimethylaminopropoxy-benzylidene)anabaseine], the “Oocytes Antagonist” value on rat alpha7 receptor [3] (Table 4) is “.02”. In addition, at rat alpha7 receptor [2] (Table 4, read-out: Oocytes Agonist α7), the Emax turned out to be 3%. The inhibition at 1 µM in assay [1] (setting [5]) was 87%.
For `C[N+](C)(C)CCCCCC[N+](C)(C)C` [hexamethonium], the “antagonist effect on DMXB-induced neuroprotection (in words)” value (from here on “antagonist effect”) in assay [4] (against glutamate cytotoxicity) is “sensitive”.
On to `CNC1(C)C2CCC(C2)C1(C)C` (centres unmarked) [mecamylamine, reference compound], for which the “block of neuroprotective action of DMXB (in words)” value with rat was “blocked this neuroprotective action of DMXB; also recorded: blocking action”. In addition, the “antagonist effect” value in assay [4] (against glutamate cytotoxicity) is “sensitive”.
On to `CCN1C[C@]2(COC(=O)c3ccccc3N3C(=O)C[C@H](C)C3=O)CC[C@H](OC)[C@@]34[C@@H]5C[C@H]6[C@H](OC)[C@@H]5[C@](O)(C[C@@H]6OC)[C@@](O)([C@@H](OC)[C@H]23)[C@@H]14` [methyllycaconitine], for which the “antagonist effect” value in assay [4] (against glutamate cytotoxicity) is “sensitive”.
On to `CN1CCCC1c1cccnc1` (centres unmarked) [nicotine], for which, in assay [4], the “protection by nicotine (in words)” value was “protected against neuronal loss”.
On to “(7'-methyl-3-(2,4-dimethoxybenzylidene)) anabaseine [7'-methyl-DMXB]”, for which the “alpha7 activation: response, normalized to 500 μM acetylcholine (maximum response)” value on rat alpha7 receptor [2] is recorded as 0.32. Also, the “alpha4beta2 activation: response compared to maximal acetylcholine” value at rat alpha4beta2 receptor (xenopus oocytes) is recorded as 0.02.
Consider “NGF: nerve growth factor, 100 ng/ml (rat 2.5S NGF)”, for which, in the assay with PC12 cells, the “Neurite Counts” value was 342 ± 56.
In the case of α-bungarotoxin [reference compound], the Kd (as a rule, a measure of binding affinity in units of concentration) in assay [1] (read-out: Kd, Scatchard analysis (r=0.98; single site model)) is 1.9 nM. Besides, the “antagonist effect” value in assay [4] is recorded as “sensitive”.
